For one series, the system named is CHO cells. The class given is cell-based. Conditions: for % new chol / ug cholest. / ug new chl / 372/368: 5 uM, CHO cells; for % new chol / ug cholest. / ug new chl: duplicate samples; for 372/368: ion ratio m/z 372 to m/z 368, duplicate samples.
Another series concerns SLOS fibroblasts. The format is cell-based, human. How it is done:
The effect of 27-hydroxy-7-dehydrocholesterol on cholesterol synthesis was studied in CHO cells (Table 2). SLOS fibroblasts were plated at a density of 375,000 cells in a T-25 flask in DMEM containing 10% fetal bovine serum. After 24 hours, the media was changed to McCoy's 5A containing 7.5% lipoprotein deficient serum and 25% D2O. To these cultures, either 5 μM of 27-hydroxycholesterol or 27-hydroxy-7-dehydrocholesterol in hydroxypropyl-β-cyclodextrin were added. Control cultures had only the vehicle added. Media was changed on day 3 and cell pellets were obtained on day 5. Newly synthesized 7-DHC was determined by a combination of GLC-FID and GLC-MS. At a medium concentration of 5 μM 27-hydroxy-7-dehydrocholesterol, the synthesis rate of 7-DHC fell to less than 2 ng/day/T-25 flask in each cell line. […] In untreated cultures, the rates of 7-DHC synthesis were 326±8 and 1414±88 ng/day/T-25 flask (mean±SD) for A2SLO and 4350SLO respectively.

Structures are written as SMILES. Values joined by “and” are separate entries in the source; they are usually repeats but may differ in a detail not shown here. Identical values can stand only once. Like-named read-outs stand apart in the source and are kept apart here.

For the molecule `CC(CO)CCC[C@@H](C)[C@H]1CC[C@H]2C3=CC=C4C[C@@H](O)CC[C@]4(C)[C@H]3CC[C@]12C` (stereo partly drawn) [27-hydroxy-7-dehydrocholesterol, cholesta-5,7-diene-3β-27 diol], in the series with CHO cells, the “% new chol” value is 2.6% and 2.9%; the ug cholest. is 29.5 µg and 32.6 µg; the ug new chl is 0.78 µg and 0.95 µg; the 372/368 was 0.0079 and 0.0087. In addition, the “inhibition of cholesterol synthesis compared with an equimolar amount of 27-hydroxycholesterol” value with CHO cells (5 μM, cell culture) is reported as “slightly greater”. In the series with CHO cells (cell culture assays), the “inhibition of cholesterol synthesis (in words)” value is on record as “potent inhibitor of cholesterol synthesis”. The “metabolism to 27-hydroxycholesterol in SLOS fibroblasts” value in the series with SLOS fibroblasts was “did not metabolize”. The “synthesis rate of 7-DHC” value with SLOS fibroblasts (medium concentration 5 μM, each cell line (A2SLO and 4350SLO), untreated 326±8 and 1414±88) is reported as “less than 2 ng/day/T-25 flask”.
With `CC(CO)CCC[C@@H](C)[C@H]1CC[C@H]2[C@@H]3CC=C4C[C@@H](O)CC[C@]4(C)[C@H]3CC[C@]12C` (stereo partly drawn) [27-hydroxycholesterol, cholest-5-ene-3 β, 27-diol, reference compound], in the series with CHO cells (listed as 27OH), the “% new chol” value was 4.4% and 3.6%; the ug cholest. was 29.9 µg and 33.1 µg; the ug new chl was 1.3 µg and 1.2 µg; the 372/368 is 0.013 and 0.011.

The values above are taken from patent publication US20040121992A1, “Therapeutic methods of reducing cholesterol accumulation” (priority 2002, published 2004).
